Test results: patent publication US8389500B2, “Fused heterocyclic compounds as ion channel modulators” (Gilead Sciences, Inc., priority 2008, dated 2013)

Molecular target: T1, wild-type human cardiac sodium channel, hNav1.5 (late sodium current) (Homo sapiens, UniProt Q14524)
T1 construct: host or cells: HEK293
Test: Late INa screening assay (PatchXpress whole cell patch clamp)
Assay type: cell-based
Settings: 10 μM test compound; HEK293 hNav1.5; late INa generated with 10 μM Tefluthrin (some experiments 50 nM ATX II); read-out: Late INa % blk (10 μM test cmpd)
Experimental: The late sodium current (Late INa) and peak sodium current (Peak INa) assays are performed on an automated electrophysiology platform, PatchXpress 7000A (MDS Analytical Technologies, Sunnyvale, Calif.), which uses the whole cell patch clamp technique to measure currents through the cell membrane of up to 16 cells at a time. The assay uses an HEK293 (human embryonic kidney) cell line heterologously expressing the wild-type human cardiac sodium channel, hNav1.5, purchased from Millipore (Billerica, Mass.). No beta subunits were coexpressed with the Na channel alpha subunit. Cells are maintained with standard tissue culture procedures and stable channel expression is maintained with 400 μg/ml Geneticin in the culture medium. […] Experiments are carried out at 24-27° C.
For both the Late INa and Peak INa assays, series resistance compensation is set to 50% and whole-cell compensation is performed automatically. […] Currents through open sodium channels are automatically recorded and stored in the DataXpress2 database (MDS Analytical Technologies, Sunnyvale, Calif.). Analysis is performed using DataXpress2 analysis software and data are compiled in Excel.
Compound stocks are routinely made in glass vials to 10 mM in dimethyl sulfoxide (DMSO). In some cases, when compounds are not soluble in DMSO, they are made in 100% ethanol. Stocks are sonicated as necessary. The extracellular solution for screening Late INa is composed of: 140 mM NaCl, 4 mM KCl, 1.8 mM CaCl2, 0.75 mM MgCl2, and 5 mM HEPES with pH adjusted to 7.4 using NaOH. The extracellular solution for screening Peak INa is composed of: 20 mM NaCl, 120 mM N-methyl-D glucamine, 4 mM KCl, 1.8 mM CaCl2, 0.75 mM MgCl2, and 5 mM HEPES with pH adjusted to 7.4 using HCl. The intracellular solution used to perfuse the inside of the cells for both the Late INa and Peak INa assays contains: 120 mM CsF, 20 mM CsCl, 5 mM EGTA, 5 mM HEPES and pH adjusted to 7.4 with CsOH. […] The 0Na extracellular solution used at the end of each experiment for the Late INa and Peak INa assays to measure baseline current contains: 140 mM N-methyl-D-glucamine; 4 mM KCl; 1.8 mM CaCl2; 0.75 mM MgCl2; 5 mM HEPES and pH was adjusted to 7.4 with HCl.
For the Late INa assay, sodium channels are activated every 10 seconds (0.1 Hz) by depolarizing the cell membrane to −20 mV for 250 milliseconds (ms) from a holding potential of −120 mV. In response to a −20 mV voltage step, typical Nav1.5 sodium currents activate rapidly to a peak negative current and then inactivate nearly completely within […].
All compounds are tested to determine their activity in blocking the late sodium current. Late INa current is generated by adding 10 μM Tefluthrin (pyrethroid) to the extracellular solution while recording Na currents For some experiments, 50 nM ATX II (sea anemone toxin), another late Na activator, was used to generate the late component. […] After establishing the whole cell recording configuration, late INa activators are added to each well 4 times over a 16-17 minute period so that the late component of the Na current reaches a stable value. […] Measurements are made at the end of exposure to the third compound addition and values are normalized to the current level when all Na^+ is removed from the extracellular solution after two additions of ONa-ECF. Results are reported as percent block of late INa

T1 sequence (Q14524 whole entry): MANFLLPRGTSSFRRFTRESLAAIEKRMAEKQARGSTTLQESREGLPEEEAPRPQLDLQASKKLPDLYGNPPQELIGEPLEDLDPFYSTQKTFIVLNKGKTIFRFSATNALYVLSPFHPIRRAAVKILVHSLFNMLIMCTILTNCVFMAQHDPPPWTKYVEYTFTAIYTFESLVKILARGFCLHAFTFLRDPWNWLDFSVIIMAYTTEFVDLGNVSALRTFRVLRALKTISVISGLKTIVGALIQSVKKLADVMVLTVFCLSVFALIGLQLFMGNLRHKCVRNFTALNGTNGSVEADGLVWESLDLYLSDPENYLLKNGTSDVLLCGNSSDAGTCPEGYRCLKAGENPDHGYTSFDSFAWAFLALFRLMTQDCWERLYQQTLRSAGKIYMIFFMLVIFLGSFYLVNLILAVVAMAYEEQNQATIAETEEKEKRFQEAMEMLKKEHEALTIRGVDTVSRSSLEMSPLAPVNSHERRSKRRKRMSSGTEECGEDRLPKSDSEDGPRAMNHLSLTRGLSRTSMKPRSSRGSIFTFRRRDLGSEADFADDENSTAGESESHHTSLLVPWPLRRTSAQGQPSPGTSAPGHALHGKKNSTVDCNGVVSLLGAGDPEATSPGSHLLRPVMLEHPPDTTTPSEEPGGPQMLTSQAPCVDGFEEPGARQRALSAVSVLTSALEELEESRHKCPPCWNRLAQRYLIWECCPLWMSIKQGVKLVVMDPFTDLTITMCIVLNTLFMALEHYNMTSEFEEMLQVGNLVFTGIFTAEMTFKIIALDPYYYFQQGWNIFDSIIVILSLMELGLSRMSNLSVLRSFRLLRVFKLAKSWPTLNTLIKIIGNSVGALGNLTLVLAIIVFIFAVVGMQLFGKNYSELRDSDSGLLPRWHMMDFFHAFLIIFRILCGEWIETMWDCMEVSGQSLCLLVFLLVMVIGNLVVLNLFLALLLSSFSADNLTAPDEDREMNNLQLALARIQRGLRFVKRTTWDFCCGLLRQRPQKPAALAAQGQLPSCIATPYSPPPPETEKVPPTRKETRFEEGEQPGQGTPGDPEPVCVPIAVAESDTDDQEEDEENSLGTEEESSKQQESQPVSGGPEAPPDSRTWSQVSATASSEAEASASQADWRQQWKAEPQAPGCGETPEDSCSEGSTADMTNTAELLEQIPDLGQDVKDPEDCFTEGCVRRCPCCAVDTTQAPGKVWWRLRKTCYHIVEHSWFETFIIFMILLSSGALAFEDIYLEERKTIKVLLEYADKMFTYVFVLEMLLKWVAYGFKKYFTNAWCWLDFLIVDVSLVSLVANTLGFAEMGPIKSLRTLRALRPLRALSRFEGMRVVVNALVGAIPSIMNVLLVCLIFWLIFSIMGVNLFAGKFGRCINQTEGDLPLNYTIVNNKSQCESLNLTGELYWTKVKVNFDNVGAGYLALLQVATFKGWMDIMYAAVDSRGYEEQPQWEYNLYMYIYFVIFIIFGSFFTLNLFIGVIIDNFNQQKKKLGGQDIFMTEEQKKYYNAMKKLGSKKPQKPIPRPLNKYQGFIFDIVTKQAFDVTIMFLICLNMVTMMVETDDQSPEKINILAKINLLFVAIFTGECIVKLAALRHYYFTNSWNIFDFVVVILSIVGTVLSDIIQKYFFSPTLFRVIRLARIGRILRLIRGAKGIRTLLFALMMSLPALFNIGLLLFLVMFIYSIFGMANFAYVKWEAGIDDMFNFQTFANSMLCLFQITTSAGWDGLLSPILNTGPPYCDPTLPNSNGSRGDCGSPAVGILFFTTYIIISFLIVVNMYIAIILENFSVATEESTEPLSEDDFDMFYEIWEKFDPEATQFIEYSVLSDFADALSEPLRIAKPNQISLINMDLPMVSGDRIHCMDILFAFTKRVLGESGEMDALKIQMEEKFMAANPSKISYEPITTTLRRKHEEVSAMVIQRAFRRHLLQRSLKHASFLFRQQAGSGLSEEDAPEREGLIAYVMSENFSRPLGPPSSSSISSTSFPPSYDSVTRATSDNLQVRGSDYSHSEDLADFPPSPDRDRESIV

Row | Compound | inhibition at 10 µM
1 | CS(=O)(=O)Nc1ccc(-c2ccc(F)cc2Cl)cc1Cl [PT-098, N-(2′,3-dichloro-4′-fluorobiphenyl-4-yl)methanesulfonamide] | 36.4%
2 | CS(=O)(=O)Nc1ccc(-c2ccc(OC(F)(F)F)cc2)cc1OC(F)(F)F [PT-099, N-[3,4′-bis(trifluoromethoxy)biphenyl-4-yl]methanesulfonamide] | 8.9%
3 | CS(=O)(=O)Nc1ccc(-c2cccc(OC(F)(F)F)c2)cc1OC(F)(F)F [PT-100, N-[3,3′-bis(trifluoromethoxy)biphenyl-4-yl]methanesulfonamide] | -0.7%
4 | CC(C)(C)OC(=O)CN(c1ccc(-c2cccc(OC(F)(F)F)c2)c(F)c1)S(C)(=O)=O [PT-101, tert-butyl N-[2-fluoro-3′-(trifluoromethoxy)biphenyl-4-yl]-N-(methylsulfonyl)glycinate] | 72.9%
5 | CC(C)(C)OC(=O)CN(c1ccc(-c2ccc(F)c(Cl)c2)c(Cl)c1)S(C)(=O)=O [PT-102, tert-butyl N-(2,3′-dichloro-4′-fluorobiphenyl-4-yl)-N-(methylsulfonyl)glycinate] | 53.6%
6 | CS(=O)(=O)N(CC(=O)O)c1ccc(-c2cccc(OC(F)(F)F)c2)c(F)c1 [PT-103, N-[2-fluoro-3′-(trifluoromethoxy)biphenyl-4-yl]-N-(methylsulfonyl)glycine] | 21.2%
7 | CS(=O)(=O)N(CC(=O)O)c1ccc(-c2ccc(F)c(Cl)c2)c(Cl)c1 [PT-104, N-(2,3′-dichloro-4′-fluorobiphenyl-4-yl)-N-(methylsulfonyl)glycine] | 14.2%
8 | Cc1cc(N([C@@H](C)C(=O)O)S(C)(=O)=O)ccc1-c1ccc(Oc2ccccc2)cc1 [PT-105, N-(2-methyl-4′-phenoxybiphenyl-4-yl)-N-(methylsulfonyl)alanine] | 5.8%
9 | Cc1cc(-c2ccc(Oc3ccccc3)cc2)c(Cl)cc1N(CC(=O)O)S(C)(=O)=O [PT-106, N-(2-chloro-5-methyl-4′-phenoxybiphenyl-4-yl)-N-(methylsulfonyl)glycine] | 42%
10 | Cc1cc(N(Cc2ccc(C(=O)OC(C)(C)C)cc2)S(C)(=O)=O)ccc1-c1ccc(Oc2ccccc2)cc1 [PT-107, tert-butyl 4-{[(2-methyl-4′-phenoxybiphenyl-4-yl)(methylsulfonyl)amino]methyl}benzoate] | 21.2%
11 | COc1ccc(NS(C)(=O)=O)cc1-c1cccc(OC(F)(F)F)c1 [PT-109, N-[6-methoxy-3′-(trifluoromethoxy)biphenyl-3-yl]methanesulfonamide] | 35.1%
12 | COc1ccc(NS(C)(=O)=O)cc1-c1ccc(Cl)c(F)c1 [PT-110, N-(4′-chloro-3′-fluoro-6-methoxybiphenyl-3-yl)methanesulfonamide] | 39.9%
13 | CS(=O)(=O)N(CC(=O)O)c1ccc(-c2ccc(C(F)(F)F)cc2)c(Cl)c1 [PT-111, N-[2-chloro-4′-(trifluoromethyl)biphenyl-4-yl]-N-(methylsulfonyl)glycine] | 14.6%
14 | Cc1cc(-c2ccc(Oc3ccccc3)cc2)c(Cl)cc1N(Cc1ccc(C(=O)O)cc1)S(C)(=O)=O [PT-113, 4-{[(2-chloro-5-methyl-4′-phenoxybiphenyl-4-yl)(methylsulfonyl)amino]methyl}benzoic acid] | 34%
15 | O=S(=O)(Nc1ccc(-c2ccc(Oc3ccccc3)cc2)cc1OC(F)(F)F)C1CC1 [PT-114, N-[4′-phenoxy-3-(trifluoromethoxy)biphenyl-4-yl]cyclopropanesulfonamide] | 14.1%
16 | N#Cc1cc(-c2ccc(Oc3ccccc3)cc2)ccc1NS(=O)(=O)C1CC1 [PT-115, N-(3-cyano-4′-phenoxybiphenyl-4-yl)cyclopropanesulfonamide] | 61.8%
17 | COC(=O)c1cc(-c2ccc(Oc3ccccc3)cc2)ccc1NS(=O)(=O)C1CC1 [PT-116, methyl 4-[(cyclopropylsulfonyl)amino]-4′-phenoxybiphenyl-3-carboxylate] | 11.2%

Row | Compound | inhibition at 10 µM
18 | O=C(O)c1cc(-c2ccc(Oc3ccccc3)cc2)ccc1NS(=O)(=O)C1CC1 [PT-117, 4-[(cyclopropylsulfonyl)amino]-4′-phenoxybiphenyl-3-carboxylic acid] | 40.7%
19 | COC(=O)c1cc(-c2ccc(Oc3ccccc3)cc2)ccc1NS(C)(=O)=O [PT-118, methyl 4-[(methylsulfonyl)amino]-4′-phenoxybiphenyl-3-carboxylate] | 40.8%
20 | CS(=O)(=O)Nc1ccc(-c2ccc(Oc3ccccc3)cc2)cc1OC(F)(F)F [PT-119, N-[4′-phenoxy-3-(trifluoromethoxy)biphenyl-4-yl]methanesulfonamide] | 6.6%
21 | CS(=O)(=O)Nc1ccc(-c2ccc(Oc3ccccc3)cc2)cc1C(=O)O [PT-120, 4-[(methylsulfonyl)amino]-4′-phenoxybiphenyl-3-carboxylic acid] | 27%
22 | COC(=O)c1cc(-c2ccc(C(F)(F)F)cc2)ccc1NS(C)(=O)=O [PT-121, methyl 4-[(methylsulfonyl)amino]-4′-(trifluoromethyl)biphenyl-3-carboxylate] | 40.5%
23 | CS(=O)(=O)Nc1ccc(-c2ccc(C(F)(F)F)cc2)cc1C(=O)O [PT-122, 4-[(methylsulfonyl)amino]-4′-(trifluoromethyl)biphenyl-3-carboxylic acid] | 25.4%
24 | N#Cc1cc(NS(=O)(=O)C2CC2)ccc1-c1ccc(Oc2ccccc2)cc1 [PT-124, N-(2-cyano-4′-phenoxybiphenyl-4-yl)cyclopropanesulfonamide] | 32.2%
25 | COc1cccc(S(=O)(=O)Nc2cccc(-c3ccc(Cl)cc3)c2)c1 [PT-127, N-(4′-chlorobiphenyl-3-yl)-3-methoxybenzenesulfonamide] | 25%
26 | CC(C)(C)OC(=O)CN(c1ccc(-c2ccc(C(F)(F)F)cc2)c(Cl)c1)S(C)(=O)=O [PT-128, tert-butyl 2-(N-(2-chloro-4′-(trifluoromethyl)biphenyl-4-yl)methylsulfonamido)acetate] | 25.7%
27 | C#Cc1cc(NS(C)(=O)=O)ccc1-c1ccc(Oc2ccccc2)cc1 [PT-129, N-(2-ethynyl-4′-phenoxybiphenyl-4-yl)methanesulfonamide] | 44.4%
28 | N#Cc1cc(NS(=O)(=O)C2CC2)ccc1-c1ccc(C(F)(F)F)cc1 [PT-130, N-(2-cyano-4′-(trifluoromethyl)biphenyl-4-yl)cyclopropanesulfonamide] | 26%
29 | CS(=O)(=O)Nc1cccc(-c2ccc(Oc3ccc(C(=O)O)cc3)cc2)c1 [PT-131, 4-(3′-(methylsulfonamido)biphenyl-4-yloxy)benzoic acid] | 20.8%
30 | CS(=O)(=O)Nc1cccc(-c2ccc(C(F)(F)F)c(F)c2)c1 [PT-132, N-(3′-fluoro-4′-(trifluoromethyl)biphenyl-3-yl)methanesulfonamide] | 65.9%
31 | Cc1cc(N(Cc2ccc(CC(=O)O)cc2)S(=O)(=O)C2CC2)ccc1-c1ccc(Oc2ccccc2)cc1 [PT-133, 2-(4-((N-(2-methyl-4′-phenoxybiphenyl-4-yl)cyclopropanesulfonamido)methyl)phenyl)acetic acid] | 34.1%
32 | COc1cc(N(Cc2ccc(C(=O)O)cc2)S(C)(=O)=O)ccc1-c1ccc(Oc2ccccc2)cc1 [PT-134, 4-((N-(2-methoxy-4′-phenoxybiphenyl-4-yl)methylsulfonamido)methyl)benzoic acid] | 3.9%
33 | CS(=O)(=O)N(Cc1ccc(-c2nnn[nH]2)cc1)c1ccc(-c2ccc(Oc3ccccc3)cc2)c(Cl)c1 [PT-135, N-(4-(1H-tetrazol-5-yl)benzyl)-N-(2-chloro-4′-phenoxybiphenyl-4-yl)methanesulfonamide] | 9.7%
